# Results published in PMC9964746, “Mechanism of Action and Structure–Activity Relationships of Tetracyclic Small Molecules Acting as Universal Positive Allosteric Modulators of the Cholecystokinin Receptor” (Membranes, 2023).
# What was measured:
# [1] = target: T1, CCK2R (Homo sapiens, UniProt P32239); experiment: Intracellular calcium assay (Fura-8-AM) in CHO-CCK2R cells; assay type: cell-based; conditions: compound 10 µM
# T1 construct: expressed in transfected cells; host or cells: CHO-K1 (CHO-CCK2R line)
# T1 sequence (P32239 1-447): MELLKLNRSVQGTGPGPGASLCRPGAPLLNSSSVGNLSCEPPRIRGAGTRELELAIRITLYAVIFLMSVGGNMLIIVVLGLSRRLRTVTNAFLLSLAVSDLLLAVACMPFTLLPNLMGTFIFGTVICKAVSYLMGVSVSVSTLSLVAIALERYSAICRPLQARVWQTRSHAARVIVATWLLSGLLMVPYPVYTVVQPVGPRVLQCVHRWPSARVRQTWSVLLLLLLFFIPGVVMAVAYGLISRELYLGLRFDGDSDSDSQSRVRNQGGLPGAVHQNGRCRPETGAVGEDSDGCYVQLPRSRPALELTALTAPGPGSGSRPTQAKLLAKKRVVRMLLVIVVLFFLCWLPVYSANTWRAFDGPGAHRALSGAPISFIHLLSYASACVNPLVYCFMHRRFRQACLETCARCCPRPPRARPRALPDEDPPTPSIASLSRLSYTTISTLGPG
# Description: (§1) Biological activity was quantified in the CHO cell lines described above using intracellular calcium assays that were performed, as previously described, using Fura-8-AM (AAT Bioquest, Pleasonton, CA, USA). Full agonist dose–response curves were performed along with determination of maximal responses to 0.1 mM ATP, targeting an endogenous receptor present on the parental cells. Concentration–response curves of peak intracellular calcium responses were analyzed and plotted as percentages of maximal responses using non-linear regression analysis in Prism 9.1 (GraphPad).
# [2] = target: T2, CCK1R (Homo sapiens, UniProt P32238); experiment: CCK1R cAMP accumulation assay, PAM format, HEK-293 CCK1R cells; assay type: cell-based; set-up: expressed in transfected cells; host or cells: HEK-293; conditions: for EC50: EC20 concentration of CCK; for Emax: HEK293, EC20 concentration of CCK
# T2 sequence (P32238 1-428): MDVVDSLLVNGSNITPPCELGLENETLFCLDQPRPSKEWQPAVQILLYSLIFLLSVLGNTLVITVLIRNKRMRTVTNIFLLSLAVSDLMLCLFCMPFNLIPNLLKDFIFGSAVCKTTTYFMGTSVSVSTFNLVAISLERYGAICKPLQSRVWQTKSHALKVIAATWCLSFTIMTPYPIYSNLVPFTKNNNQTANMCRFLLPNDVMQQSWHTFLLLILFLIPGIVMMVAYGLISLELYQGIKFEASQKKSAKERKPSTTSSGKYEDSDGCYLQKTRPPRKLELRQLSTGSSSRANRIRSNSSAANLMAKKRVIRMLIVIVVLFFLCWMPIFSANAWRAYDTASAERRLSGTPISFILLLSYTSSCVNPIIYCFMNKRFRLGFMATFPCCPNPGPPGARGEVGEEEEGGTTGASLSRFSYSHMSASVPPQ
# Description: Possible off-target biological effects. […] Here, we tested them at the vasopressin-2 receptor (AVP2R), representing a class A GPCR structurally related to CCK1R, which is coupled to Gs. The activity at AVP2R was tested using AVP2R-overexpressing CHO-K1 (PAM format) or HEK-293 (agonist format) cells, stimulating the cells with vasopressin. Original hits were tested in both agonist and PAM formats. Since all recognized compound responses were present in both formats, we continued to screen analogs in only the PAM format (also able to capture agonist effects) in CHO-K1 AVP2R cells for potential enhanced sensitivity. The dose–response data sets for original hits were combined, as the PAM and agonist effects were indistinguishable. In brief, arginine vasopressin (AVP) orthosteric stimulator dilutions and ligand and compound dose–response titrations in DMSO were transferred onto a 1536-well plate (Corning #3725) using an Echo liquid handler (Labcyte). Thawed cryopreserved cell stocks were diluted in stimulation buffer consisting of HBSS (Hank’s Balanced Salt Solution with Ca^2+ and Mg^2+, Gibco #24020117), 5 mM HEPES (hydroxyethyl piperazineethanesulfonic acid), 0.5 mM IBMX (3-isobutyl-1-methylxanthine, Sigma-Aldrich), and 0.075% BSA (7.5% DTPA-purified bovine serum albumin, PerkinElmer). The resulting cell suspension was added to the microplate and incubated with test compounds at room temperature for 30 min. Then, the detection reagents from the Cisbio cAMP Gs Dynamic HTRF detection kit were added. The plate was kept at room temperature for 30 min and read on a PHERAstar FSX microplate reader. Dose–response curves were performed as 16-point 2-fold dilutions in duplicate in at least two independent experiments.
# For CCK1R-induced Gs signaling studies, we performed cAMP accumulation assays as described above and as previously reported, utilizing the HEK-293 cells overexpressing CCK1Rs and the EC20 concentration of CCK for screening in PAM format.
# [3] = target: T2, CCK1R; experiment: Intracellular calcium assay (Fura-8-AM) in CHO-CCK1R cells; assay type: cell-based; set-up: expressed in transfected cells; conditions: for Intrinsic agonist activity at CCK1R (intracellular calcium): CHO-CCK1R cells, compound alone, up to 20 µM; for Kb / Logαβ: operational model of allosterism, mean ± SEM; for Kb: CCK-8-stimulated calcium responses in CCK1R-expressing cells; for Logαβ: cooperativity with CCK-8 in CCK1R-expressing cells
# Description: as §1
# [4] = target: T2, CCK1R; experiment: Receptor internalization assay with alexa488-CCK; assay type: cell-based; set-up: expressed in transfected cells; host or cells: HEK-293; conditions: hits at 10 µM; cell surface receptor labelled with alexa488-CCK
# Description: Receptor internalization assays were performed with the fluorescent alexa488-CCK ligand used to visualize cell surface receptors after treatment and fixation with 2% paraformaldehyde (Electron Microscopy Sciences, Cat# 15710), as we described. Images were acquired with a Zeiss Axiovert 200M inverted epifluorescence microscope.
# [5] = tested on: purinergic receptor (P2YR); conditions: off-target screen ref 6; cited from earlier work
Logαβ ([3]; listed as Hit 6),Logαβ ([3]; listed as hit 6),SMILES,Effect on CCK action at CCK2R (intracellular calcium) [1],EC50 [2],Emax [2],Intrinsic agonist activity at CCK1R (intracellular calcium) [3],Kb [3],CCK1R internalization [4],Activity at P2YR [5],Logαβ ([3]; listed as Hit 1),Logαβ ([3]; listed as hit 1)
1.0 ± 0.2,1.0,CCCc1nc2oc3c(NCCCN(C)C)ncnc3c2c2c1CCCC2 [CMP-28],no effect on CCK2R,15.6 ± 12.4 µM,56 ± 26%,no significant endogenous agonist activity at CCK1R,25.1 µM,neither “hit” cleared the receptor from the cell surface,Neither compound exhibited any activity at the P2YR,–,–
–,–,CCN(CC)CCNc1ncnc2c1sc1nc(N3CCOCC3)c3c(c12)CCCC3 [CMP-1],no effect on CCK2R,14.7 ± 7.3 µM,48 ± 31%,no significant endogenous agonist activity at CCK1R,31.6 µM,neither “hit” cleared the receptor from the cell surface,Neither compound exhibited any activity at the P2YR,1.5 ± 0.3,1.5
